Values quoted from earlier work as cited in US8603436B2, “Methods and compositions for targeted drug delivery” (priority 2000, dated 2013).
Read-outs that look alike come from different tables or passages of the source. Blank lines part the entries; values can stand above or below the compound they belong to. Square brackets hold non-standard residues; d marks the D form. Peptide text beside a SMILES is read from it. * marks the point of attachment. X1 = NCCCC[C@H](NC(=O)[C@H](CS)NC(=O)[C@H](CCCCN)NC(=O)[C@@H](N)CNC(=O)C*)C(N)=O; NMeF = CN[C@@H](Cc1ccccc1)C(=O)O; hCys = N[C@@H](CCS)C(=O)O

Tests used:
glioblastoma cells = settings: in vitro
tumor [1] = settings: tumor models and individual patients
[2] = tested on: ssr subtypes present in rat pancreas carcinoma membranes; settings: free (unlabeled) peptide
tumor [3] = settings: in vivo

- concentration in lysosomes relative to cytosolic concentration (glioblastoma cells): 100 fold lower
- concentration in microsomes relative to cytosolic concentration (glioblastoma cells): 125 fold lower
- concentration in nuclei relative to cytosolic concentration (glioblastoma cells): 80 fold lower
- time to maximum uptake into whole glioblastoma cells (glioblastoma cells): 1 h
- cytosolic concentration (glioblastoma cells; at maximum uptake): 250 ng per million of glioma cells
- tumor enrichment factor (tumor [1]): ≤ 3
Compound: N[C@@H](Cc1ccc(B(O)O)cc1)C(=O)O [BPA, p-boronophenylalanine]

Compound: CC(C)[C@@H]1NC(=O)[C@H](CCCCN)NC(=O)[C@@H](Cc2c[nH]c3ccccc23)NC(=O)[C@H](Cc2ccc(O)cc2)NC(=O)[C@H](Cc2ccccc2)N(C)C(=O)[C@H](CCSCC(=O)NC[C@H](N)C(=O)N[C@@H](CCCCN)C(=O)N[C@@H](CS)C(=O)N[C@@H](CCCCN)C(N)=O)NC1=O [depreotide] (cyclo([hCys](X1)[NMeF]Y[dW]KV))
- apparent affinity of the free peptide compared with octreotide [2]: one order of magnitude lower

- tumor enrichment factor (tumor [3]): ~100
Compound: beta-5-o-carboranyl-2′-deoxyuridine [D-CDU]

Compound: boronated protoporphyrin [BOPP]
- subcellular accumulation (lysosomes): accumulate in lysosomes, but not in mitochondria or the nucleus
